Experimental data reported in ChEMBL document CHEMBL4004849, “Tetrazolylmethyl quinolines: Design, docking studies, synthesis, anticancer and antifungal analyses” (2017).
Values after ≈ are worked out from the molar mass of the structure shown.

Experiments:
Format in all cases: functional
NCI-H226 = assay: Growth inhibition of human NCI-H226 cells at 10^-5 M incubated for 48 hrs by sulforhodamine B assay relative to control; settings: NCI-H226, 48 h, read-out: GI
SF-295 = assay: Growth inhibition of human SF295 cells at 10^-5 M incubated for 48 hrs by sulforhodamine B assay relative to control; settings: SF-295, 48 h, read-out: GI
UACC-62 = assay: Growth inhibition of human UACC62 cells at 10^-5 M incubated for 48 hrs by sulforhodamine B assay relative to control; settings: UACC-62, 48 h, read-out: GI
LOX IMVI = assay: Growth inhibition of human LOXIMVI cells at 10^-5 M incubated for 48 hrs by sulforhodamine B assay relative to control; settings: read-out: GI
Aspergillus fumigatus [1] = assay: Antifungal activity against Aspergillus fumigatus after 24 hrs by serial dilution method
SR = assay: Growth inhibition of human SR cells at 10^-5 M incubated for 48 hrs by sulforhodamine B assay relative to control; settings: read-out: GI
HCT-15 = assay: Growth inhibition of human HCT15 cells at 10^-5 M incubated for 48 hrs by sulforhodamine B assay relative to control; settings: HCT-15, 48 h, read-out: GI
OVCAR-4 = assay: Growth inhibition of human OVCAR4 cells at 10^-5 M incubated for 48 hrs by sulforhodamine B assay relative to control; settings: OVCAR-4, 48 h, read-out: GI
SK-MEL-2 = assay: Growth inhibition of human SK-MEL-2 cells at 10^-5 M incubated for 48 hrs by sulforhodamine B assay relative to control; settings: SK-MEL-2, 48 h, read-out: GI
UACC-257 = assay: Growth inhibition of human UACC257 cells at 10^-5 M incubated for 48 hrs by sulforhodamine B assay relative to control; settings: UACC-257, 48 h, read-out: GI
MCF7 = assay: Growth inhibition of human MCF7 cells at 10^-5 M incubated for 48 hrs by sulforhodamine B assay relative to control; settings: MCF7, 48 h, read-out: GI
NCI-H460 = assay: Growth inhibition of human NCI-H460 cells at 10^-5 M incubated for 48 hrs by sulforhodamine B assay relative to control; settings: NCI-H460, 48 h, read-out: GI
Candida albicans [2] = assay: Antifungal activity against Candida albicans after 24 hrs by serial dilution method
OVCAR-3 = assay: Growth inhibition of human OVCAR3 cells at 10^-5 M incubated for 48 hrs by sulforhodamine B assay relative to control; settings: OVCAR-3, 48 h, read-out: GI
M14 = assay: Growth inhibition of human M14 cells at 10^-5 M incubated for 48 hrs by sulforhodamine B assay relative to control; settings: M14, 48 h, read-out: GI
KM12 = assay: Growth inhibition of human KM12 cells at 10^-5 M incubated for 48 hrs by sulforhodamine B assay relative to control; settings: KM12, 48 h, read-out: GI
HL-60(TB) = assay: Growth inhibition of human HL-60(TB) cells at 10^-5 M incubated for 48 hrs by sulforhodamine B assay relative to control; settings: HL-60, 48 h, read-out: GI
OVCAR-8 = assay: Growth inhibition of human OVCAR8 cells at 10^-5 M incubated for 48 hrs by sulforhodamine B assay relative to control; settings: OVCAR-8, 48 h, read-out: GI
HCC 2998 = assay: Growth inhibition of human HCC2998 cells at 10^-5 M incubated for 48 hrs by sulforhodamine B assay relative to control; settings: HCC 2998, 48 h, read-out: GI
786-0 = assay: Growth inhibition of human 786-0 cells at 10^-5 M incubated for 48 hrs by sulforhodamine B assay relative to control; settings: 786-0, 48 h, read-out: GI
ACHN = assay: Growth inhibition of human ACHN cells at 10^-5 M incubated for 48 hrs by sulforhodamine B assay relative to control; settings: read-out: GI
UO-31 = assay: Growth inhibition of human UO31 cells at 10^-5 M incubated for 48 hrs by sulforhodamine B assay relative to control; settings: UO-31, 48 h, read-out: GI
Candida albicans [3] = assay: Antifungal activity against Candida albicans at 100 ug/ml by disc diffusion method; settings: read-out: IZ
BT-549 = assay: Growth inhibition of human BT549 cells at 10^-5 M incubated for 48 hrs by sulforhodamine B assay relative to control; settings: BT-549, 48 h, read-out: GI
MOLT-4 = assay: Growth inhibition of human MOLT4 cells at 10^-5 M incubated for 48 hrs by sulforhodamine B assay relative to control; settings: MOLT-4, 48 h, read-out: GI
SK-OV-3 = assay: Growth inhibition of human SKOV3 cells at 10^-5 M incubated for 48 hrs by sulforhodamine B assay relative to control; settings: SK-OV-3, 48 h, read-out: GI
OVCAR-5 = assay: Growth inhibition of human OVCAR5 cells at 10^-5 M incubated for 48 hrs by sulforhodamine B assay relative to control; settings: OVCAR-5, 48 h, read-out: GI
RXF 393 = assay: Growth inhibition of human RXF393 cells at 10^-5 M incubated for 48 hrs by sulforhodamine B assay relative to control; settings: RXF 393, 48 h, read-out: GI
EKVX = assay: Growth inhibition of human EKVX cells at 10^-5 M incubated for 48 hrs by sulforhodamine B assay relative to control; settings: read-out: GI
MDA-MB-231 = assay: Growth inhibition of human MDA-MB-231/ATCC cells at 10^-5 M incubated for 48 hrs by sulforhodamine B assay relative to control; settings: MDA-MB-231, 48 h, read-out: GI
NCI-H522 = assay: Growth inhibition of human NCI-H522 cells at 10^-5 M incubated for 48 hrs by sulforhodamine B assay relative to control; settings: NCI-H522, 48 h, read-out: GI
NCI-H23 = assay: Growth inhibition of human NCI-H23 cells at 10^-5 M incubated for 48 hrs by sulforhodamine B assay relative to control; settings: NCI-H23, 48 h, read-out: GI
A549 = assay: Growth inhibition of human A549/ATCC cells at 10^-5 M incubated for 48 hrs by sulforhodamine B assay relative to control; settings: A549, 48 h, read-out: GI
MDA-MB-468 = assay: Growth inhibition of human MDA-MB-468 cells at 10^-5 M incubated for 48 hrs by sulforhodamine B assay relative to control; settings: MDA-MB-468, 48 h, read-out: GI
Aspergillus fumigatus [4] = assay: Antifungal activity against Aspergillus fumigatus at 100 ug/ml by disc diffusion method; settings: read-out: IZ
SK-MEL-5 = assay: Growth inhibition of human SK-MEL-5 cells at 10^-5 M incubated for 48 hrs by sulforhodamine B assay relative to control; settings: SK-MEL-5, 48 h, read-out: GI
SNB-19 = assay: Growth inhibition of human SNB19 cells at 10^-5 M incubated for 48 hrs by sulforhodamine B assay relative to control; settings: SNB-19, 48 h, read-out: GI
K562 = assay: Growth inhibition of human K562 cells at 10^-5 M incubated for 48 hrs by sulforhodamine B assay relative to control; settings: K562, 48 h, read-out: GI
MDA-MB-435 = assay: Growth inhibition of human MDA-MB-435 cells at 10^-5 M incubated for 48 hrs by sulforhodamine B assay relative to control; settings: MDA-MB-435, 48 h, read-out: GI
SN12C = assay: Growth inhibition of human SN12C cells at 10^-5 M incubated for 48 hrs by sulforhodamine B assay relative to control; settings: read-out: GI
IGROV-1 = assay: Growth inhibition of human IGROV1 cells at 10^-5 M incubated for 48 hrs by sulforhodamine B assay relative to control; settings: IGROV-1, 48 h, read-out: GI
HCT-116 = assay: Growth inhibition of human HCT116 cells at 10^-5 M incubated for 48 hrs by sulforhodamine B assay relative to control; settings: HCT-116, 48 h, read-out: GI
Malme-3M = assay: Growth inhibition of human MALME-3M cells at 10^-5 M incubated for 48 hrs by sulforhodamine B assay relative to control; settings: read-out: GI
U-251 = assay: Growth inhibition of human U251 cells at 10^-5 M incubated for 48 hrs by sulforhodamine B assay relative to control; settings: U-251, 48 h, read-out: GI
SK-MEL-28 = assay: Growth inhibition of human SK-MEL-28 cells at 10^-5 M incubated for 48 hrs by sulforhodamine B assay relative to control; settings: SK-MEL-28, 48 h, read-out: GI

Clc1nc2ccccc2cc1Cn1nnc(Cc2ccccc2)n1 was tested, and the inhibition of growth at 10 µM (NCI-H226) was 41.8%, the inhibition of growth at 10 µM (SF-295) was 52.4% and the inhibition of growth at 10 µM (UACC-62) was 48.3%. The inhibition of growth at 10 µM (LOX IMVI) was 46.4%, the MIC (Aspergillus fumigatus [1]) was 50 mg/L (≈ 149 µM) and the inhibition of growth at 10 µM (SR) was 63%. The inhibition of growth at 10 µM (HCT-15) was 35%, the inhibition of growth at 10 µM (OVCAR-4) was 70.3% and the inhibition of growth at 10 µM (SK-MEL-2) was 41.2%. It also gave an inhibition of growth at 10 µM (UACC-257) of 46.4%, an inhibition of growth at 10 µM (MCF7) of 54.2% and an inhibition of growth at 10 µM (NCI-H460) of 25.7%. The MIC (Candida albicans [2]) was 25 mg/L (≈ 74.4 µM), the inhibition of growth at 10 µM (OVCAR-3) was 40.5% and the inhibition of growth at 10 µM (M14) was 26.4%. The inhibition of growth at 10 µM (KM12) was 33.7%, the inhibition of growth at 10 µM (HL-60(TB)) was 12.1% and the inhibition of growth at 10 µM (OVCAR-8) was 28.4%. The inhibition of growth at 10 µM (HCC 2998) was 18.7%, the inhibition of growth at 10 µM (786-0) was 27.1% and the inhibition of growth at 10 µM (ACHN) was 47.8%. The inhibition of growth at 10 µM (UO-31) was 181%, the zone of inhibition at 100 µg/mL (Candida albicans [3]) was 10 mm and the inhibition of growth at 10 µM (BT-549) was 61.1%. It also gave an inhibition of growth at 10 µM (MOLT-4) of 56.9%, an inhibition of growth at 10 µM (SK-OV-3) of 42.6% and an inhibition of growth at 10 µM (OVCAR-5) of -4.25%. The inhibition of growth at 10 µM (RXF 393) was 16.1%, the inhibition of growth at 10 µM (EKVX) was 63.9% and the inhibition of growth at 10 µM (MDA-MB-231) was 47%. The inhibition of growth at 10 µM (NCI-H522) was 57.9%, the inhibition of growth at 10 µM (NCI-H23) was 54.5% and the inhibition of growth at 10 µM (A549) was 46.1%. For the same compound, the inhibition of growth at 10 µM (MDA-MB-468) was 88.9%, the zone of inhibition at 100 µg/mL (Aspergillus fumigatus [4]) was 16 mm and the inhibition of growth at 10 µM (SK-MEL-5) was 99.3%. The inhibition of growth at 10 µM (SNB-19) was 10.2%, the inhibition of growth at 10 µM (K562) was 44.8% and the inhibition of growth at 10 µM (MDA-MB-435) was 34.7%. For the same compound, the inhibition of growth at 10 µM (SN12C) was 29.7%, the inhibition of growth at 10 µM (IGROV-1) was 49.1% and the inhibition of growth at 10 µM (HCT-116) was 64.9%. It also gave an inhibition of growth at 10 µM (Malme-3M) of 34.4%, an inhibition of growth at 10 µM (U-251) of 23.7% and an inhibition of growth at 10 µM (SK-MEL-28) of 15.3%.
